Source: PubChem BioAssay AID1963839 (Molecular Pharmacology Branch, DTP, NCI, 2024)

Test system: 817829-284-R-J1-PDC complex spheroid viability
Experiment: Anticancer human tumor 817829-284-R-J1-PDC patient-derived colon adenocarcinoma cell line growth inhibition [POLQ]
Conditions: for IC50: curve of first compound; for viability, T/C: stronger effect = lower value
Outline: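 Three-cell-type spheroids modelling solid tumor plus stroma served as the readout system; POL inhibitors were tested individually and in combination, concentration ranges set by clinical Cmax where known.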

[1] = second compound 0.0316 µM, first compound 0.0316 µM
[2] = second compound 0.0316 µM, first compound 0.1 µM
[3] = second compound 0.0316 µM, first compound 0.316 µM
[4] = second compound 0.0316 µM, first compound 1 µM
[5] = second compound 0.0316 µM, first compound 3.16 µM
[6] = second compound 0.0316 µM, first compound 10 µM
[7] = second compound 0.1 µM, first compound 0.0316 µM
[8] = second compound 0.1 µM, first compound 0.1 µM
[9] = second compound 0.1 µM, first compound 0.316 µM
[10] = second compound 0.1 µM, first compound 1 µM
[11] = second compound 0.1 µM, first compound 3.16 µM
[12] = second compound 0.1 µM, first compound 10 µM
[13] = second compound 0.316 µM, first compound 0.0316 µM
[14] = second compound 0.316 µM, first compound 0.1 µM
[15] = second compound 0.316 µM, first compound 0.316 µM
[16] = second compound 0.316 µM, first compound 1 µM
[17] = second compound 0.316 µM, first compound 3.16 µM
[18] = second compound 0.316 µM, first compound 10 µM
[19] = second compound 1 µM, first compound 0.0316 µM
[20] = second compound 1 µM, first compound 0.1 µM
[21] = second compound 1 µM, first compound 0.316 µM
[22] = second compound 1 µM, first compound 1 µM
[23] = second compound 1 µM, first compound 3.16 µM
[24] = second compound 1 µM, first compound 10 µM
[25] = second compound 3.16 µM, first compound 0.0316 µM
[26] = second compound 3.16 µM, first compound 0.1 µM
[27] = second compound 3.16 µM, first compound 0.316 µM
[28] = second compound 3.16 µM, first compound 1 µM
[29] = second compound 3.16 µM, first compound 3.16 µM
[30] = second compound 3.16 µM, first compound 10 µM
[31] = second compound 10 µM, first compound 0.0316 µM
[32] = second compound 10 µM, first compound 0.1 µM
[33] = second compound 10 µM, first compound 0.316 µM
[34] = second compound 10 µM, first compound 1 µM
[35] = second compound 10 µM, first compound 3.16 µM
[36] = second compound 10 µM, first compound 10 µM
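Note: spheroids exposed to compounds for 7 days.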
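Throughout, for viability, T/C: 100% = DMSO vehicle-treated spheroids.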

SMILES: CC(C)n1c(=O)n(C)c2cnc3cc(F)c(-c4ccc(OCCCN5CCCCC5)nc4)cc3c21 + COC1C(OC(N)=O)C(O)C(Oc2ccc3c(O)c(NC(=O)c4ccc(O)c(CC=C(C)C)c4)c(=O)oc3c2C)OC1(C)C
- IC50 (second compound 0.0316 µM): > 10 µM
- IC50 (second compound 0.1 µM): 7.06 µM
- IC50 (second compound 0.316 µM): > 10 µM
- IC50 (second compound 1 µM): 4.94 µM
- IC50 (second compound 3.16 µM): 4.97 µM
- IC50 (second compound 10 µM): 5.05 µM
- viability, T/C [1]: 88.5%
- viability, T/C [2]: 95.9%
- viability, T/C [3]: 61.4%
- viability, T/C [4]: 93.1%
- viability, T/C [5]: 84.5%
- viability, T/C [6]: 52.6%
- viability, T/C [7]: 74.4%
- viability, T/C [8]: 82.5%
- viability, T/C [9]: 129%
- viability, T/C [10]: 102%
- viability, T/C [11]: 72.7%
- viability, T/C [12]: 40.2%
- viability, T/C [13]: 78.5%
- viability, T/C [14]: 96.5%
- viability, T/C [15]: 86.3%
- viability, T/C [16]: 93%
- viability, T/C [17]: 71.4%
- viability, T/C [18]: 55.8%
- viability, T/C [19]: 102%
- viability, T/C [20]: 102%
- viability, T/C [21]: 84%
- viability, T/C [22]: 81.1%
- viability, T/C [23]: 62.5%
- viability, T/C [24]: 31.8%
- viability, T/C [25]: 81.9%
- viability, T/C [26]: 87.8%
- viability, T/C [27]: 78.6%
- viability, T/C [28]: 85.8%
- viability, T/C [29]: 71.3%
- viability, T/C [30]: 16.9%
- viability, T/C [31]: 80.5%
- viability, T/C [32]: 65.4%
- viability, T/C [33]: 62.1%
- viability, T/C [34]: 81.4%
- viability, T/C [35]: 74.4%
- viability, T/C [36]: 16.9%

SMILES: CNCc1ccc(-c2[nH]c3cc(F)cc4c3c2CCNC4=O)cc1 + COC1C(OC(N)=O)C(O)C(Oc2ccc3c(O)c(NC(=O)c4ccc(O)c(CC=C(C)C)c4)c(=O)oc3c2C)OC1(C)C
- IC50 (second compound 0.0316 µM): 6.63 µM
- IC50 (second compound 0.1 µM): > 10 µM
- IC50 (second compound 0.316 µM): > 10 µM
- IC50 (second compound 1 µM): 5.24 µM
- IC50 (second compound 3.16 µM): 5.17 µM
- IC50 (second compound 10 µM): 5.38 µM
- viability, T/C [1]: 95.8%
- viability, T/C [2]: 94%
- viability, T/C [3]: 83%
- viability, T/C [4]: 76.8%
- viability, T/C [5]: 68.8%
- viability, T/C [6]: 40.2%
- viability, T/C [7]: 73.3%
- viability, T/C [8]: 102%
- viability, T/C [9]: 86%
- viability, T/C [10]: 55.2%
- viability, T/C [11]: 72.8%
- viability, T/C [12]: 53.3%
- viability, T/C [13]: 99.1%
- viability, T/C [14]: 108%
- viability, T/C [15]: 83.7%
- viability, T/C [16]: 80.4%
- viability, T/C [17]: 74.3%
- viability, T/C [18]: 51.5%
- viability, T/C [19]: 125%
- viability, T/C [20]: 91.6%
- viability, T/C [21]: 107%
- viability, T/C [22]: 81.8%
- viability, T/C [23]: 80.3%
- viability, T/C [24]: 22%
- viability, T/C [25]: 119%
- viability, T/C [26]: 109%
- viability, T/C [27]: 98.9%
- viability, T/C [28]: 103%
- viability, T/C [29]: 58.5%
- viability, T/C [30]: 38.2%
- viability, T/C [31]: 98%
- viability, T/C [32]: 99%
- viability, T/C [33]: 75.1%
- viability, T/C [34]: 90.1%
- viability, T/C [35]: 73.9%
- viability, T/C [36]: 23.1%
